In one data set the test system is HL-60. As to the kind of experiment: Antiproliferative activity against human HL-60 cells assessed as inhibition of cell growth measured after 7 days by cell-titer glo assay. It is filed as functional, cell-based. The settings on record: HL-60, 168 h.
For the next data set, the system named is THP-1. As to the kind of experiment: Antiproliferative activity against human THP-1 cells assessed as inhibition of cell growth measured after 7 days by cell-titer glo assay. It is filed as functional, cell-based. The conditions noted are these: THP-1, 168 h.
The target in data set [1] is T1, Amine oxidase [flavin-containing] B (Homo sapiens, UniProt P27338).
T1 sequence (P27338 whole entry): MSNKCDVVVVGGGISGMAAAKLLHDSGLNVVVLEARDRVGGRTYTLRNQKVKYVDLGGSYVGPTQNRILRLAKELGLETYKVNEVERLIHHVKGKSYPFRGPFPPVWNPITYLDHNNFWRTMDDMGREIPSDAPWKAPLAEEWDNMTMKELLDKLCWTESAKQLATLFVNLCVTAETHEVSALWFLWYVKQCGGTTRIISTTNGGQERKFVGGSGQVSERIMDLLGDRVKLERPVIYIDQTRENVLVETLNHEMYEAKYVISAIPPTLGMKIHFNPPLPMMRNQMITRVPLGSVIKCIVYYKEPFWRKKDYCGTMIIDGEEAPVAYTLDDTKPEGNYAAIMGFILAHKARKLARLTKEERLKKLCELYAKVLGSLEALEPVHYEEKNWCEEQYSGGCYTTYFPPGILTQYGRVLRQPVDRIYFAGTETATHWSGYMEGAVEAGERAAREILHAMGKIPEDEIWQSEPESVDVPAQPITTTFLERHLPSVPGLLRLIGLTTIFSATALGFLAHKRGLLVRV
As to the kind of experiment: Inhibition of human N-terminal Flag-tagged MAOB extracted baculovirus infected in Sf9 cells measured after 0.5 hrs by MAO-Glo Assay. In kind it is cell-based.

Data set [2] has as its target T2, Lysine-specific histone demethylase 1A (Homo sapiens, UniProt O60341). As to the kind of experiment: Induction of thermal stabilization of LSD1 in human MV4-11 cells at 50 to 75 degree C by […] analysis. In kind it is cell-based.
Data set [3] in a line: Half life in male Sprague-Dawley rat at 10 mg/kg, po measured up to 24 hrs by LC-MS/MS analysis. In kind it is ADME, organism-based. The conditions noted are these: in vivo.
For data set [4], the target named is T2, Lysine-specific histone demethylase 1A. Kind of data set: Inhibition of LSD1 in human MV4-11 cells assessed as increase in LSD1 protein level at 2 to 4 micromol/L measured after 48 hrs by Western blot analysis. The settings on record: dose 2-4 µmol/L. It is filed as cell-based. (Immunoblotting shows a protein as a band on a membrane.)
Data set [5] shares this target. As to the kind of experiment: Inhibition of LSD1 in human MV4-11 cells assessed as increase in H3K4 expression level at 2 to 4 micromol/L measured after 48 hrs by Western blot analysis. In kind it is cell-based. The conditions noted are these: dose 2-4 µmol/L.
The subject of data set [6] is MV4-11. As to the kind of experiment: Induction of apoptosis in human MV4-11 cells assessed as increase in early apoptosis measured after 48 hrs by Annexin V-FITC/PI double staining based flow cytometry analysis. It is filed as functional, cell-based. The settings on record: dose 2-4 µmol/L. A general note: In flow cytometry, cells or beads pass a laser one at a time.

The subject of data set [7] is MV4-11. As to the kind of experiment: Induction of apoptosis in human MV4-11 cells assessed as increase in late apoptosis measured after 48 hrs by Annexin V-FITC/PI double staining based flow cytometry analysis. In kind it is functional, cell-based. The conditions noted are these: dose 2-4 µmol/L.
Data set [8] concerns MV4-11. As to the kind of experiment: Induction of apoptosis in human MV4-11 cells assessed as viable cells at 4 micromol/L measured after 48 hrs by Annexin V-FITC/PI double staining based flow cytometry analysis (reference value: 89.13%). In kind it is functional. The settings on record: MV4-11, 48 h, dose 4 µmol/L, read-out: Activity.
Data set [9] relates to MV4-11. As to the kind of experiment: Induction of apoptosis in human MV4-11 cells assessed as early apoptotic cells at 3 micromol/L measured after 48 hrs by Annexin V-FITC/PI double staining based flow cytometry analysis (reference value: 2.01 %). It is filed as functional. The conditions noted are these: dose 3 µmol/L, at 3 µM.
For data set [10], the system named is MV4-11. As to the kind of experiment: Induction of apoptosis in human MV4-11 cells assessed as late apoptotic cells at 2 micromol/L measured after 48 hrs by Annexin V-FITC/PI double staining based flow cytometry analysis (reference value: 7.70 %). In kind it is functional. The settings on record: dose 2 µmol/L, at 2 µM.
The test system of data set [11] is MV4-11. As to the kind of experiment: Induction of apoptosis in human MV4-11 cells assessed as late apoptotic cells at 3 micromol/L measured after 48 hrs by Annexin V-FITC/PI double staining based flow cytometry analysis (reference value: 7.70 %). It is filed as functional. The settings on record: dose 3 µmol/L, at 3 µM.
For data set [12], the system named is MV4-11. As to the kind of experiment: Induction of apoptosis in human MV4-11 cells assessed as necrotic cells at 3 micromol/L measured after 48 hrs by Annexin V-FITC/PI double staining based flow cytometry analysis (reference value: 1.16 %). In kind it is functional. The settings on record: dose 3 µmol/L, at 3 µM.
In data set [13] the test system is MV4-11. As to the kind of experiment: Induction of apoptosis in human MV4-11 cells assessed as increase in cleaved caspase-7 level at 2 to 4 micromol/L measured after 72 hrs by Western blot analysis. In kind it is functional, cell-based. The conditions noted are these: dose 2-4 µmol/L.
Data set [14] can be described thus: Upregulation of CD86 expression in human MV4-11 cells at 4 micromol/L incubated for 48 hrs by flow cytometry analysis relative to control. The conditions noted are these: dose 4 µmol/L, at 4 µM. In kind it is functional.
Data set [15] in a line: Metabolic stability in human liver microsomes assessed as intrinsic clearance measured up to 60 mins in presence of NADPH by LC-MS/MS analysis. The settings on record: read-out: CLH. It is filed as ADME, Microsome.
Data set [16] can be described thus: Metabolic stability in mouse liver microsomes assessed as half life measured up to 60 mins in presence of NADPH by LC-MS/MS analysis. It is filed as ADME, Microsome.
Data set [17] is described as follows: Metabolic stability in rat liver microsomes assessed as intrinsic clearance measured up to 60 mins in presence of NADPH by LC-MS/MS analysis. It is filed as ADME, Microsome. The settings on record: read-out: CLH.
Data set [18] is described as follows: Solubility in PBS buffer at pH 7.4 measured after 2 hrs by LC-MS/MS analysis. It is filed as physicochemical.
The nature of data set [19]: AUC (0 to t) in male Sprague-Dawley rat at 10 mg/kg, po measured up to 24 hrs by LC-MS/MS analysis. The settings on record: in vivo. In kind it is ADME, organism-based.
Data set [20] in a line: Cmax in male Sprague-Dawley rat at 10 mg/kg, po measured up to 24 hrs by LC-MS/MS analysis. It is filed as ADME, organism-based. The conditions noted are these: in vivo.
A short description of data set [21]: Half life in male Sprague-Dawley rat at 1 mg/kg, iv measured up to 24 hrs by LC-MS/MS analysis. It is filed as ADME, organism-based. The conditions noted are these: in vivo.
Data set [22] can be described thus: Cmax in male Sprague-Dawley rat at 1 mg/kg, iv measured up to 24 hrs by LC-MS/MS analysis. It is filed as ADME, organism-based. The settings on record: in vivo.

The source made the active and inactive calls.

As usually defined, the IC50 is the midpoint of a concentration-inhibition curve. The half-life is the time needed for the level to fall by half in the phase considered. The solubility is the concentration that dissolves in the medium under given conditions. The term AUC(0-t) denotes the area under the concentration-time curve up to a stated or last time point. Low values mean less exposure, high ones more exposure. Usually Cmax stands for the peak of the concentration-time curve.

As for `Cl.O=S(=O)(c1ccccc1)n1ncc2cc(-n3cc(CN[C@@H]4C[C@H]4c4ccc(F)c(F)c4)nn3)ccc21`, the half-inhibitory concentration (IC50) was found to be 1400 nM with HL-60, 1960 nM in the data set on THP-1 and 2650 nM in data set [1]. For the same compound, the result (in data set [2]; with MV4-11 [13]) was Active. In addition, the half-life in [3] is 86.4 min; in [16] it was 5.3 min; in [21], 41.4 min. Also, the inhibition entry in data set [4] and in [5] was “Active” each time. Further, the Activity entry in the data set on MV4-11 [6] is “Dose-dependent-effect”; with MV4-11 [7] it was “Dose-dependent-effect”; in the data set with MV4-11 [9] it was 3.18%; with MV4-11 [10], 13.76%; with MV4-11 [11], 13.22%; in the data set on MV4-11 [12] it was 2.8%. This compound also displayed an Activity in [14] of 33.76%. Also, in the data set with MV4-11 [8], the viability at 4 µM amounted to 77.4%. Moreover, the CLint scaled in [15] was 108 mL/min/kg; in data set [17], 352 mL/min/kg. Also, the concentration in solution in data set [18] (solubility at 2 h) was 1.43 µM. In data set [19], the AUC(0-t) at 24 h came out at 280 ng·h/mL. For the same compound, the peak concentration (Cmax) in data set [20] turned out to be 89.8 ng/mL; in [22], 869 ng/mL.

(Values after ChEMBL document CHEMBL6134819, “Discovery of novel tranylcypromine-indazole-based derivatives as LSD1 inhibitors for acute myeloid leukemia treatment” (Eur J Med Chem, 2025).)
